From publication PMC7496508, “Modular Medical Imaging Agents Based on Azide–Alkyne Huisgen Cycloadditions: Synthesis and Pre‐Clinical Evaluation of ^18F‐Labeled PSMA‐Tracers for Prostate Cancer Imaging” (Chemistry (Weinheim an Der Bergstrasse, Germany), 2020)
Values joined by “and” are separate entries in the source; they are usually repeats but may differ in a detail not shown here. Equal values may be shown once. Values belong to the molecule of their own block, whether it stands above or below them.

Columns and labels:
[1] = target: T1, PSMA (Homo sapiens, UniProt Q04609); test: cell-based competitive binding radioassay with [68Ga]PSMA-11 as radioligand on LNCaP cells
T1 construct: host or cells: LNCaP cells
Procedure: To compare the binding affinity of F‐PSMA‐MIC01 with „gold standard“ PSMA‐tracers, the same assay was performed using the precursor of [^68Ga]PSMA‐11 (Figure 2 D).
Table S3. Counts per minute (CPM) of the 3 indidicually measured triplicates of [18F]PSMA-MIC01 of n- […]
Octanol (CPM) PBS (CPM) BLK (CPM) LogD Mean SD
Prostate cancer cell lines PC-3 and LNCaP were obtained from the American Type Culture Collection (ATCC, Manassas, VA). Cells were cultured in RPMI-1640 (Lonza, Swiss), supplemented with 10 % fetal calf serum (FCS, Thermo Scientific Waltham, MA) at 37°C in a humidified 5 % CO2 atmosphere. To enhance adherence of LNCaP cells tissue culture flasks and/or well plates were pre-coated with poly-D-lysine (Merck) according manufacture protocol. Cells were regularly checked for mycoplasma infection.
6.1. Cell binding studies.
For the determination of the binding affinity, a competitive binding radioassay was performed.
Two 24 well plates were incubated with 50.000 cells 3 to 4 days prior to the cell experiments.
After washing the cells twice with warm PBS, new medium was added. For the binding […]
cold reference compound F-PSMA-MIC01 were added to the wells shortly before 50 µL of the radioligand [68Ga]PSMA-HBED-CC or [18F]PSMA-1007 to reach a final volume of 500 µL in each well. After incubation of 90 min at 37°C under humidified conditions the cells were washed twice with ice-cold PBS to remove unbound tracer. Cells were detached from the wells using Trypsin supplemented with 25 % EDTA and incubated until cells were completely detached. […] The remaining activity in the cells were measured in a γ-counter. Afterwards, the cells were counted in a 1:1 solution of cell suspension and Trypan Blue. The tracer uptake was calculated using Microsoft Excel and corrected for the average number of cells and averaged. The logIC50 value was calculated using the non-linear regression algorithm for a one-site FITlogIC50 using PrismGraphPad 7.2. The graphs represented show the average of the three individual experiments, while the mentioned logIC50 was calculated from the mean of the three

[2] = target: T1, PSMA; test: competitive binding radioassay with [18F]PSMA-1007 as radioactive competitor on LNCaP cells
Procedure: During the pre‐clinical evaluation of [^18F]PSMA‐MIC01, many hospitals including the University Medical Center Groningen changed from using [^68Ga]PSMA‐11 to [^18F]PSMA‐1007. Therefore, the binding affinities for the 2nd generation PSMA‐tracers‐tracers were determined in a radioassay using [^18F]PSMA‐1007 as radioactive competitor (Figure 1 D). page 20: Table S3. Counts per minute (CPM) of the 3 indidicually measured triplicates of [18F]PSMA-MIC01 of n- octanol and PBS Octanol (CPM) PBS (CPM) BLK (CPM) LogD Mean SD […] No 1.2 2995.66 4176463.25 58.39 -3.15 […] No 2.3 1020.97 1916376.47 30.41 -3.29 -3.22 0.09 6. Cell culture. Prostate cancer cell lines PC-3 and LNCaP were obtained from the American Type Culture Collection (ATCC, Manassas, VA). Cells were cultured in RPMI-1640 (Lonza, Swiss), supplemented with 10 % fetal calf serum (FCS, Thermo Scientific Waltham, MA) at 37°C in a humidified 5 % CO2 atmosphere. To enhance adherence of LNCaP cells tissue culture flasks and/or well plates were pre-coated with poly-D-lysine (Merck) according manufacture protocol. Cells were regularly checked for mycoplasma infection. 6.1. Cell binding studies. For the determination of the binding affinity, a competitive binding radioassay was performed. Two 24 well plates were incubated with 50.000 cells 3 to 4 days prior to the cell experiments. After washing the cells twice with warm PBS, new medium was added. For the binding […] cold reference compound F-PSMA-MIC01 were added to the wells shortly before 50 µL of the radioligand [68Ga]PSMA-HBED-CC or [18F]PSMA-1007 to reach a final volume of 500 µL in each well. After incubation of 90 min at 37°C under humidified conditions the cells were washed twice with ice-cold PBS to remove unbound tracer. Cells were detached from the wells using Trypsin supplemented with 25 % EDTA and incubated until cells were completely detached. 900 µL of medium was added and cells were transferred into tubes. The remaining activity in the cells were measured in a γ-counter. Afterwards, the cells were counted in a 1:1 solution of cell suspension and Trypan Blue. The tracer uptake was calculated using Microsoft Excel and corrected for the average number of cells and averaged. The logIC50 value was calculated using the non-linear regression algorithm for a one-site FITlogIC50 […] The graphs represented show the average of the three individual experiments, while the mentioned logIC50 was calculated from the mean of the three experiments; 19

[3] = system: LNCaP tumor; set-up: method as in PMID 27789722; conditions: cited from earlier work
[4] = distribution coefficient logD, n-octanol/PBS; format: physicochemical; conditions: n-octanol/PBS, pH 7.4, n-octanol/PBS pH 7.4; overall mean
Procedure: page 19: Figure S3: HPLC purification of [18F]PSMA-MIC02 (A) and after 4 h (B). 5. Distribution coefficient LogD. […] cup. 100 µL of the formulated final solution of [18F]PSMA-MIC01 or [18F]PSMA-MIC02 was added and vortexed for 1 minute and centrifuged for 5 min at […]. The different layers were separated and 100 µL of each layer were measured on a γ-counter. Based on the counts per minute (CPM) of each fraction, the partition coefficient was measured with the following formula: log(CPMoctanol/CPMPBS). The obtained data are as followed. Table S2. Counts per minute (CPM) of the 3 indidicually measured triplicates of [18F]PSMA-MIC01 of n- octanol and PBS. Octanol (CPM) PBS (CPM) BLK (CPM) LogD Mean SD […] No 1.2 2823.43 2715328.33 93.59 -2.99 […] No 2.3 394.49 640463.84 93.59 -3.21 […] No 3.2 3690.69 2357291.58 50.84 -2.81 No 3.3 5848.38 3956671.48 52.31 -2.83 -3.01 0.22 18 (1 picture or pasted object on this page, not shown here)

[5] = system: LNCaP (PSMA+) xenografts; test: ex vivo organ distribution, LNCaP xenograft mice; format: in vivo, Balb/c nude mice; conditions: LNCaP (PSMA+) xenograft, dissected after PET scan
Procedure: All groups were evaluated by visual assessment of the PET image and the percentage injected dose per gram (%ID g^−1).
The animal experiments were all performed according to the ethical guidelines and approved by the local animal welfare committee of the University of Groningen (IvD number 15166-06-001. All animals were caged separately in individually ventilated cages.
7-12 week old immune deficient Balb/c nude mice were inoculated with 200 µL of a 1:1 suspension of medium containing approximately 4 x10^6 LNCaP cells (PSMA positive cells) or 5 x 10^6 PC3 cells (PSMA-negative cells) in RPMI-1640, and Matrigel Basement Membrane Matrix High concentration. The cells were subcutaneously inoculated on the right shoulder.
After 3 to 5 weeks for LNCaP-xenografts, 2-3 weeks for PC3-xenografts or when a tumor size of 1cm3 was reached, the animals were transported to the PET imaging facility. For the […]
prepared and 100 µL were injected via penile vein injection 30 min prior to the tracer injection. Animals were anesthetized at 5 % isoflurane and maintained under 2 % isoflurane enriched with O2. The dynamic PET scan was started within 5 min after tracer injection with an acquisition time of 90 min. The static scan was performed 60 min after tracer injection with an acquisition time of 30 min.
7.2. Organ distribution and Metabolite analysis.
After sacrificing the animals, the organs were dissected and measured in a γ-counter. The obtained CPM’s were normalized to %ID/g (Table shown in main text). […]
In order to check for the significant differences, we also checked for the Cohen’s d, a measurement to determine the effect size. It is calculated on the following formula:
Cohen′sD = Mean1− Mean2 . […]

[6] = given as logIC50, single experiments, radioligand [18F]PSMA-1007, read-out: logIC50, individual experiments (converted)

T1 sequence (Q04609 whole entry): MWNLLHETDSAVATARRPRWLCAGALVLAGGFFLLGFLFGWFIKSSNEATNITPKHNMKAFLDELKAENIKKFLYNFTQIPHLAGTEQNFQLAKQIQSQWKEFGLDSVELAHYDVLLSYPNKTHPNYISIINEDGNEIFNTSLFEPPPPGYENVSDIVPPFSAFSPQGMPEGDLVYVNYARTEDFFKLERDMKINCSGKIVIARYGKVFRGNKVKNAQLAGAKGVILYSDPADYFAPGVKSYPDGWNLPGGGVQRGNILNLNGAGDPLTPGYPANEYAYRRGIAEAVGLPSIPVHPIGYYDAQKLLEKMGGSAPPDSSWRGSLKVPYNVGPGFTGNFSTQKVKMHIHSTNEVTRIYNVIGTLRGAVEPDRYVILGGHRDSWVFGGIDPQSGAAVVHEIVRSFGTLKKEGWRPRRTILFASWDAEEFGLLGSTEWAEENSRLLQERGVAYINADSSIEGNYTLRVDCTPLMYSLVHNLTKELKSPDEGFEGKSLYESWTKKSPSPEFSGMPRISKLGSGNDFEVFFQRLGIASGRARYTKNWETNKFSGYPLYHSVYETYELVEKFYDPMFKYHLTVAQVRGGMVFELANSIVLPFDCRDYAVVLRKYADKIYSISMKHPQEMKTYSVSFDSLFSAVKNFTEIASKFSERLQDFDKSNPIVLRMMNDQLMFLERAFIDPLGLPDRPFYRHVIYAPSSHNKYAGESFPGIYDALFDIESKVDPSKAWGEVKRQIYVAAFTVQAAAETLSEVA

- ex vivo uptake bone [5]: 0.1±0.1 %ID g^−1
- ex vivo uptake brain [5]: 0.0±0.0 %ID g^−1
- ex vivo uptake heart [5]: 0.2±0.0 %ID g^−1
- ex vivo uptake kidney [5]: 69.1±21.1 %ID g^−1
- ex vivo uptake large intestine [5]: 0.7±0.9 %ID g^−1
- ex vivo uptake liver [5]: 0.2±0.3 %ID g^−1
- ex vivo uptake lungs [5]: 1.1±0.4 %ID g^−1
- ex vivo uptake muscles [5]: 0.2±0.1 %ID g^−1
- ex vivo uptake pancreas [5]: 0.6±0.6 %ID g^−1
- ex vivo uptake plasma [5]: 1.0±0.5 %ID g^−1
- ex vivo uptake salivary glands [5]: 0.9±0.4 %ID g^−1
- ex vivo uptake small intestine [5]: 0.5±0.6 %ID g^−1
- ex vivo uptake spleen [5]: 15.9±7.3 %ID g^−1
- ex vivo uptake stomach [5]: 0.4±0.2 %ID g^−1
- ex vivo uptake tumor [5]: 6.8±6.3 %ID g^−1
- ex vivo uptake urine [5]: 45.4±30.8 %ID g^−1
- ex vivo uptake whole blood [5]: 2.2±3.8 %ID g^−1
Structure (SMILES): O=C([O-])CN(CCN(CC(=O)[O-])Cc1cc(CCC(=O)NCCCCCC(=O)NCCCC[C@H](NC(=O)N[C@@H](CCC(=O)O)C(=O)O)C(=O)O)ccc1[O-])Cc1cc(CCC(=O)O)ccc1[O-].[68Ga+3].[OH3+] [[^68Ga]PSMA‐11, reference compound]

- logIC50, individual experiments (No 1-3) ([1]; given as logIC50, single experiments, radioligand [68Ga]PSMA-11, listed as PSMA-11 precursor): -7.12 and -7.03 and -7.53
Structure (SMILES): O=C(O)CCc1ccc(O)c(CN(CCN(CC(=O)O)Cc2cc(CCC(=O)NCCCCCC(=O)NCCCC[C@H](NC(=O)N[C@@H](CCC(=O)O)C(=O)O)C(=O)O)ccc2O)CC(=O)O)c1 [precursor of PSMA-11, reference compound]

More lines, now with the values behind:

Structure (SMILES): O=C(O)CC[C@H](NC(=O)N[C@@H](CCCCNC(=O)c1ccc(-c2cn(CCOCCOCCF)nn2)cc1)C(=O)O)C(=O)O [F-PSMA-MIC01]
- IC50 ([1]; given as logIC50, single experiments, radioligand [68Ga]PSMA-11, read-out: logIC50, individual experiments (No 1-3) (converted)): 57.5 nM and 138 nM and 257 nM
- IC50 ([1]; printed as logIC50 (negative values), mean of three experiments, radioligand [68Ga]PSMA-11, 90 min 37°C, read-out: logIC50 (converted)): 129 nM
- IC50 [2, 6]: 363 nM and 851 nM and 219 nM

Structure (SMILES): O=C(O)CC[C@H](NC(=O)N[C@@H](CCCCNC(=O)c1ccc(-c2cn(CCOCCOCCOc3ccc(CCF)cc3)nn2)cc1)C(=O)O)C(=O)O [F-PSMA-MIC02]
- IC50 [2, 6]: 44.7 nM and 45.7 nM and 30.9 nM

Structure (SMILES): O=C(O)CC[C@H](NC(=O)N[C@@H](CCCCNC(=O)c1ccc(Cn2cc(COCCOCCF)nn2)cc1)C(=O)O)C(=O)O [F-PSMA-MIC03]
- IC50 ([2]; printed as logIC50 (negative values), mean of n=3 (MIC03 n=4), radioligand [18F]PSMA-1007, read-out: logIC50 (converted)): 275 nM

Structure (SMILES): O=C(O)CC[C@H](NC(=O)N[C@@H](CCCCNC(=O)c1ccc(Cn2cc(COCCOCCOc3ccc(CCF)cc3)nn2)cc1)C(=O)O)C(=O)O [F-PSMA-MIC04]
- IC50 [2, 6]: 245 nM and 151 nM and 490 nM

Structure (SMILES): O=C(O)CC[C@H](NC(=O)N[C@@H](CCCCNC(=O)[C@H](Cc1ccc2ccccc2c1)NC(=O)c1ccc(CNC(=O)[C@H](CCC(=O)O)NC(=O)[C@H](CCC(=O)O)NC(=O)c2ccc([18F])nc2)cc1)C(=O)O)C(=O)O [[^18F]PSMA‐1007]
- LNCaP tumor uptake [3]: 8.04±2.4 %ID g^−1

Structure (SMILES): O=C(O)CC[C@H](NC(=O)N[C@@H](CCCCNC(=O)c1ccc(-c2cn(CCOCCOCCOc3ccc(CC[18F])cc3)nn2)cc1)C(=O)O)C(=O)O [[^18F]PSMA‐MIC02]
- logD [4]: -3.22 ± 0.1
